Experimental data from ChEMBL document CHEMBL1132079, “Combined NK1 and NK2 tachykinin receptor antagonists: synthesis and structure-activity relationships of novel oxazolidine analogues” (Bioorg Med Chem Lett, 1999).
Activity calls are given as the source filed them. The rule behind the calls is not given here.

Experiments:
[1] = target: Substance-P receptor (Cavia porcellus) (UniProt P30547); test: Inhibitory activity against Neurokinin 1 (NK1) receptor from guinea pig lung at a concentration of 1 ug/mL
Substance-P receptor (Cavia porcellus), sequence (P30547 whole entry): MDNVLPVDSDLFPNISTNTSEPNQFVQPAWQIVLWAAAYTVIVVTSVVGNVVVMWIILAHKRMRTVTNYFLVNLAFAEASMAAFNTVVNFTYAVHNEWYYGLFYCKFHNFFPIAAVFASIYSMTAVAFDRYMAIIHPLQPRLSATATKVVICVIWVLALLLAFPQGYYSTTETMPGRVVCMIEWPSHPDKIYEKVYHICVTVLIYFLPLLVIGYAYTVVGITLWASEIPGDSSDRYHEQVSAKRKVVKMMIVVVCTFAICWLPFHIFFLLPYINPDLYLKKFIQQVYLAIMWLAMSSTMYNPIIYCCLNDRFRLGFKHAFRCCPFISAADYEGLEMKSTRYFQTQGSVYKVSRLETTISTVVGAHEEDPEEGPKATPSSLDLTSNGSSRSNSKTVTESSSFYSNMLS

[2] = target: T1, Substance-K receptor (Cavia porcellus) (UniProt Q64077); test: Antagonist activity against Neurokinin 2 (NK2) receptor from guinea pig ileum at a concentration of 1 ug/mL; assay type: functional, tissue-based
T1 sequence (whole entry): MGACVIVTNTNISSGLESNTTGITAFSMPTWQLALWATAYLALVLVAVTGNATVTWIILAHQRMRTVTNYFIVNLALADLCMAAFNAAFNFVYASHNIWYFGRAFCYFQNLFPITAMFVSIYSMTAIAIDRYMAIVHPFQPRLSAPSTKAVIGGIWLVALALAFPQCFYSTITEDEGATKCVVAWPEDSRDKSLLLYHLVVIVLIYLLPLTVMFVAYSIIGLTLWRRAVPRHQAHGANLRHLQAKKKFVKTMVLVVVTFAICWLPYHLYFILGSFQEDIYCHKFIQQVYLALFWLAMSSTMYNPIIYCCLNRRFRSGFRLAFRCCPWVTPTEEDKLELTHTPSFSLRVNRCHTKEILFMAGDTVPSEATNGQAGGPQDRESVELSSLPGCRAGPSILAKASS

[3] = target: Substance-P receptor (Cavia porcellus, UniProt P30547); test: Inhibitory activity against Neurokinin 1 (NK1) receptor from guinea pig lung
Substance-P receptor, sequence (P30547 whole entry): as the sequence (P30547 whole entry) above

[4] = target: T2, Substance-K receptor (Cavia porcellus, UniProt Q64077); test: Inhibitory activity against Neurokinin 2 (NK2) receptor from guinea pig ileum; assay type: tissue-based
T2 sequence (Q64077 whole entry): T1 sequence (whole entry)

Row | IC50 [3] | IC50 [4] | Compound | inhibition [1] | inhibition [2]
1 | – | – | COc1cc(C(=O)N2CO[C@](CCN3CCC(C(C)=O)(c4ccccc4)CC3)(c3ccc(Cl)c(Cl)c3)C2)cc(OC)c1OC | 83% | 57%
2 | – | – | COc1cc(C(=O)N2CO[C@](CCN3CCC(C(=O)Nc4ccccc4)CC3)(c3ccc(Cl)c(Cl)c3)C2)cc(OC)c1OC | 44% | 72%
3 | – | – | COc1cc(C(=O)N2CO[C@](CCN3CCC(C(=O)c4ccc(Cl)cc4)CC3)(c3ccc(Cl)c(Cl)c3)C2)cc(OC)c1OC | 97% | 54%
4 | 48 nM | 10.3 nM | COc1cc(C(=O)N2CO[C@](CCN3CCC4(CC3)NC(=O)Cc3ccccc34)(c3ccc(F)cc3)C2)cc(OC)c1OC | – | –
5 | – | – | COc1cc(C(=O)N2CO[C@](CCN3CCC(O)(c4ccccn4)CC3)(c3ccc(Cl)c(Cl)c3)C2)cc(OC)c1OC | 100% | 76%
6 | – | – | COc1cc(C(=O)N2CO[C@](CCN3CCC4(CC3)CN(Cc3ccccc3)C(=O)O4)(c3ccc(Cl)c(Cl)c3)C2)cc(OC)c1OC | 86% | 44%
7 | – | – | COc1cccc(C(=O)N2CO[C@](CCN3CCC(C(N)=O)(c4ccccc4)CC3)(c3ccc(Cl)c(Cl)c3)C2)c1 | 100% | 82%
8 | 44.9 nM | 73 nM | COc1cc(C(=O)N2CO[C@](CCN3CCC(C(=O)N4CCOCC4)(c4ccccc4)CC3)(c3ccc(Cl)c(Cl)c3)C2)cc(OC)c1OC | – | –
9 | – | – | COc1cccc(OC)c1C(=O)N1CO[C@](CCN2CCC(C(N)=O)(c3ccccc3)CC2)(c2ccc(Cl)c(Cl)c2)C1 | 74% | 83%
10 | 25.3 nM | 8.2 nM | COc1cc(C(=O)N2CO[C@](CCN3CCC(C(=O)N(C)C)(c4ccccc4)CC3)(c3ccc(Cl)c(Cl)c3)C2)cc(OC)c1OC | – | –
11 | 34 nM | 28.1 nM | COc1cc(C(=O)N2CO[C@](CCN3CCC4(CC3)c3ccccc3CS4(=O)=O)(c3ccc(Cl)c(Cl)c3)C2)cc(OC)c1OC | – | –
12 | – | – | NC(=O)C1(c2ccccc2)CCN(CC[C@@]2(c3ccc(Cl)c(Cl)c3)CN(C(=O)c3cccnc3)CO2)CC1 | 38% | 48%
13 | – | – | N#Cc1ccc(C(=O)N2CO[C@](CCN3CCC(C(N)=O)(c4ccccc4)CC3)(c3ccc(Cl)c(Cl)c3)C2)cc1 | 29% | 79%
14 | – | – | COc1cc(C(=O)N2CO[C@](CCN3CCC4(CC3)CN(S(C)(=O)=O)c3ccccc34)(c3ccc(Cl)c(Cl)c3)C2)cc(OC)c1OC | 98% | 91%
15 | – | – | NC(=O)C1(c2ccccc2)CCN(CC[C@@]2(c3ccc(Cl)c(Cl)c3)CN(C(=O)c3ccccn3)CO2)CC1 | 39% | 73%
16 | 28 nM | 115 nM | COc1cc(C(=O)N2CO[C@](CCN3CCN(c4ccc(C(C)=O)cc4)CC3)(c3ccc(Cl)c(Cl)c3)C2)cc(OC)c1OC | – | –
17 | – | – | Cc1ccc(C(=O)N2CO[C@](CCN3CCC(C(N)=O)(c4ccccc4)CC3)(c3ccc(Cl)c(Cl)c3)C2)cc1 | 56% | 88%
18 | 145 nM | 160 nM | NC(=O)C1(c2ccccc2)CCN(CC[C@@]2(c3ccc(Cl)c(Cl)c3)CN(C(=O)c3cc(C(F)(F)F)cc(C(F)(F)F)c3)CO2)CC1 | – | –
19 | – | – | COc1cc(C(=O)N2CO[C@](CCN3CCC(NC(C)=O)(c4ccccc4)CC3)(c3ccc(Cl)c(Cl)c3)C2)cc(OC)c1OC | 100% | 62%
20 | – | – | COc1cc(C(=O)N2CO[C@](CCN3CCC4(CC3)OCc3ccccc34)(c3ccc(Cl)c(Cl)c3)C2)cc(OC)c1OC | 98% | 91%
21 | – | – | COc1cc(C(=O)N2CO[C@](CCN3CCC(C(N)=O)(c4ccccn4)CC3)(c3ccc(Cl)c(Cl)c3)C2)cc(OC)c1OC | 95% | 83%
22 | – | – | COc1ccc(C(=O)N2CO[C@](CCN3CCC(C(N)=O)(c4ccccc4)CC3)(c3ccc(Cl)c(Cl)c3)C2)cc1OC | 93% | 88%
23 | – | – | COc1cc(C(=O)N2CO[C@](CCN3CCC(O)(c4ccccc4)CC3)(c3ccc(Cl)c(Cl)c3)C2)cc(OC)c1OC | 100% | 58%
24 | – | – | COc1ccccc1C(=O)N1CO[C@](CCN2CCC(C(N)=O)(c3ccccc3)CC2)(c2ccc(Cl)c(Cl)c2)C1 | 100% | 87%
25 | – | – | COc1ccc(C(=O)N2CO[C@](CCN3CCC(C(N)=O)(c4ccccc4)CC3)(c3ccc(Cl)c(Cl)c3)C2)c(OC)c1 | 78% | 85%

Row | IC50 [3] | IC50 [4] | Compound | inhibition [1] | inhibition [2]
26 | – | – | COc1cc(C(=O)N2CO[C@](CCN3CCC4(CC3)CN(c3ccccc3)C(=O)O4)(c3ccc(Cl)c(Cl)c3)C2)cc(OC)c1OC | 86% | 12%
27 | – | – | NC(=O)C1(c2ccccc2)CCN(CC[C@@]2(c3ccc(Cl)c(Cl)c3)CN(C(=O)c3ccncc3)CO2)CC1 | 65% | 57%
28 | – | – | COc1cc(C(=O)N2CO[C@](CCN3CCC(O)(c4cccnc4)CC3)(c3ccc(Cl)c(Cl)c3)C2)cc(OC)c1OC | 100% | 100%
29 | – | – | CC(C)Oc1cccc(CC(=O)N2CO[C@](CCN3CCC(C(N)=O)(c4ccccc4)CC3)(c3ccc(Cl)c(Cl)c3)C2)c1 | 59% | 18%
30 | – | – | COC(=O)c1ccc(C(=O)N2CO[C@](CCN3CCC(C(N)=O)(c4ccccc4)CC3)(c3ccc(Cl)c(Cl)c3)C2)cc1 | 36% | 85%
31 | – | – | NC(=O)C1(c2ccccc2)CCN(CC[C@@]2(c3ccc(Cl)c(Cl)c3)CN(C(=O)c3cnccn3)CO2)CC1 | 23% | 47%
32 | – | – | CC(=O)Nc1ccc(C(=O)N2CO[C@](CCN3CCC(C(N)=O)(c4ccccc4)CC3)(c3ccc(Cl)c(Cl)c3)C2)cc1 | 9% | 85%
33 | 92.9 nM | – | COc1cc(C(=O)N2CO[C@](CCN3CCC(C(=O)NCc4ccccc4)CC3)(c3ccc(Cl)c(Cl)c3)C2)cc(OC)c1OC | – | 64%
34 | – | – | COc1cc(C(=O)N2CO[C@](CCN3CCC(n4c(O)nc5ccccc54)CC3)(c3ccc(Cl)c(Cl)c3)C2)cc(OC)c1OC | 100% | 85%
35 | – | – | Cc1cc(C)cc(C(=O)N2CO[C@](CCN3CCC(C(N)=O)(c4ccccc4)CC3)(c3ccc(Cl)c(Cl)c3)C2)c1 | 100% | 90%
36 | – | – | COc1cc(C(=O)N2CO[C@](CCN3CCC(NC(=O)c4ccccc4)CC3)(c3ccc(Cl)c(Cl)c3)C2)cc(OC)c1OC | 89% | 44%
37 | – | – | COc1cc(C(=O)N2CO[C@](CCN3CCN(c4ncccn4)CC3)(c3ccc(Cl)c(Cl)c3)C2)cc(OC)c1OC | 100% | 48%
38 | – | – | NC(=O)C1(c2ccccc2)CCN(CC[C@@]2(c3ccc(Cl)c(Cl)c3)CN(C(=O)c3cc4ccccc4o3)CO2)CC1 | inactive | 59%
39 | – | – | COc1ccc(S(=O)(=O)N2CO[C@](CCN3CCC(C(N)=O)(c4ccccc4)CC3)(c3ccc(Cl)c(Cl)c3)C2)cc1OC | 71% | 10%
40 | – | – | COc1cc(CC(=O)N2CO[C@](CCN3CCC(C(N)=O)(c4ccccc4)CC3)(c3ccc(Cl)c(Cl)c3)C2)cc(OC)c1OC | 87% | inactive
41 | – | – | COc1cc(C(=O)N2CO[C@](CCN3CCN(c4ccccn4)CC3)(c3ccc(Cl)c(Cl)c3)C2)cc(OC)c1OC | 100% | 42%
42 | – | – | NC(=O)C1(c2ccccc2)CCN(CC[C@@]2(c3ccc(Cl)c(Cl)c3)CN(C(=O)c3ccc(Cl)cc3)CO2)CC1 | 50% | 88%
43 | – | – | NC(=O)C1(c2ccccc2)CCN(CC[C@@]2(c3ccc(Cl)c(Cl)c3)CN(C(=O)c3ccc4ccccc4n3)CO2)CC1 | inactive | 71%
44 | – | – | COc1cc(C(=O)N2CO[C@](CCN3CCC4(CC3)SCc3ccccc34)(c3ccc(Cl)c(Cl)c3)C2)cc(OC)c1OC | 100% | 89%
45 | – | – | COc1cc(OC)cc(C(=O)N2CO[C@](CCN3CCC(C(N)=O)(c4ccccc4)CC3)(c3ccc(Cl)c(Cl)c3)C2)c1 | 93% | 97%
46 | – | – | NC(=O)C1(c2ccccc2)CCN(CC[C@@]2(c3ccc(Cl)c(Cl)c3)CN(C(=O)c3cc4ccccc4[nH]3)CO2)CC1 | 96% | 26%
47 | – | – | NC(=O)C1(c2ccccc2)CCN(CC[C@@]2(c3ccc(Cl)c(Cl)c3)CN(C(=O)c3cccs3)CO2)CC1 | 33% | 83%
48 | – | – | NC(=O)C1(c2ccccc2)CCN(CC[C@@]2(c3ccc(Cl)c(Cl)c3)CN(C(=O)c3ccccc3)CO2)CC1 | 75% | 87%
49 | – | – | NC(=O)C1(c2ccccc2)CCN(CC[C@@]2(c3ccc(Cl)c(Cl)c3)CN(C(=O)c3cnc4ccccc4n3)CO2)CC1 | 38% | 71%

Row | Compound | IC50 [3] | IC50 [4] | inhibition [1] | inhibition [2]
50 | COc1cc(C(=O)N2CO[C@](CCN3CCC(C(=O)N(C)C)(c4ccccc4)CC3)(c3ccc(Cl)cc3)C2)cc(OC)c1OC | 78.6 nM | 7.39 nM | – | –
51 | COc1cc(C(=O)N2CO[C@](CCN3CCC(C(=O)N(C)C)(c4ccccc4)CC3)(c3ccc(F)cc3)C2)cc(OC)c1OC | 27.4 nM | 15 nM | – | –
52 | COc1cc(C(=O)N2CO[C@](CCN3CCC4(CC3)C(=O)N(C)c3ccccc34)(c3ccc(Cl)c(Cl)c3)C2)cc(OC)c1OC | 14.1 nM | 51.9 nM | – | –
53 | COc1cc(C(=O)N2CO[C@](CCN3CCC(C(N)=O)(c4ccccc4)CC3)(c3ccc(Cl)cc3)C2)cc(OC)c1OC | 44.4 nM | 329 nM | – | –
54 | COc1cc(C(=O)N2CO[C@](CCN3CCC4(CC3)C(=O)NCN4c3ccccc3)(c3ccc(Cl)c(Cl)c3)C2)cc(OC)c1OC | 7.47 nM | – | – | –
